Data from ChEMBL document CHEMBL6120994, “Unravelling the potential of natural chelating agents in the control of Staphylococcus aureus and Pseudomonas aeruginosa biofilms” (Eur J Med Chem, 2025).
Calls of active or inactive are those of the source. No cut-off for these calls is given here.

Experiments:
Staphylococcus aureus [1] = assay: Inhibition of virulence production in pre-established 24 hr-old Staphylococcus aureus CECT 976 biofilms assessed as diameter of siderophores halo at 10XMTC measured after 48 hrs (reference value: 11.5 to 11.8 mm); type: functional
Staphylococcus aureus [2] = assay: Antibiotic adjuvant activity against Staphylococcus aureus CECT 976 assessed as potentiation of tobramycin-induced antibiofilm activity by measuring reduction in biomass production at 500 ug/ml measured after 24 hrs in presence of tobramycin by crystal violet staining method; type: functional, organism-based; details: dose 500.0 µg/ml
Staphylococcus aureus [3] = assay: Antibiotic adjuvant activity against Staphylococcus aureus CECT 976 assessed as potentiation of tobamycin-induced antibacterial activity by measuring tobramycin MBC at 62.5 ug/ml measured after 24 hrs by checkerboard assay (reference value: 4 ug/ml); type: functional; details: dose 62.5 µg/ml
Pseudomonas aeruginosa [4] = assay: Antibiotic adjuvant activity against Pseudomonas aeruginosa ATCC 10145 assessed as potentiation of ciprofloxacin-induced antibacterial activity by measuring fractional inhibitory concentration index (MIC) at 15.6 ug/ml measured after 24 hrs by checkerboard assay; type: functional; details: dose 15.6 µg/ml
Pseudomonas aeruginosa [5] = assay: Antibacterial activity against Pseudomonas aeruginosa ATCC 10145 assessed as inhibition of bacterial growth by measuring inhibition zone diameter at 100 ug/ml incubated for 24 hrs in presence of gentamicin by disc diffusion method (reference value: 8.25 +/-0.5 mm); type: functional; details: read-out: DIZ
Staphylococcus aureus [6] = assay: Antibiotic adjuvant activity against Staphylococcus aureus CECT 976 assessed as potentiation of tobramycin-induced antibacterial activity by measuring fractional inhibitory concentration index (MIC) at 62.5 ug/ml measured after 24 hrs by checkerboard assay; type: functional; details: dose 62.5 µg/ml
Staphylococcus aureus [7] = assay: Inhibition of virulence production in Staphylococcus aureus CECT 976 biofilms assessed as diameter of siderophores halo at 1XMTC measured after 48 hrs (reference value: 12 mm); type: functional
Staphylococcus aureus [8] = assay: Inhibition of virulence production in pre-established 24 hr-old Staphylococcus aureus CECT 976 biofilms assessed as diameter of gelatinases halo at 10XMTC measured after 48 hrs in presence of 1XMIC tobramycin (reference value: 9.5 to 10 mm); type: functional
[9] = Cytotoxicity against human HepG2 cells assessed as metabolic activity by measuring resazurin reduction at 93.5 to 1000 ug/ml measured after 24 hrs by resazurin reduction method; type: toxicity, cell-based; details: at 93.5 to 1000 µg/mL, dose 93.5-1000 µg/ml, read-out: Activity
Staphylococcus aureus [10] = assay: Inhibition of virulence production in Staphylococcus aureus CECT 976 biofilms assessed as diameter of lipases halo at 1/2XMTC measured after 48 hrs in presence of 1/2XMIC tobramycin (reference value: 12.5 to 13.5 mm); type: functional
Staphylococcus aureus [11] = assay: Bactericidal activity against Staphylococcus aureus CECT 976 assessed as bacterial killing incubated in MHB for 24 hrs and measured following culturing on agar plate for 24 hrs; type: functional; details: time 48 hrs
Staphylococcus aureus [12] = assay: Inhibition of virulence production in pre-established 24 hr-old Staphylococcus aureus CECT 976 biofilms assessed as diameter of gelatinases halo at 1XMTC measured after 48 hrs (reference value: 10 mm); type: functional
Pseudomonas aeruginosa [13] = assay: Antibiofilm activity against preestablished 24 hr-old Pseudomonas aeruginosa ATCC 10145 assessed as reduction in metabolic activity of biofilm cells at 10XMTC by resazurin staining based fluorescence analysis; type: functional
Pseudomonas aeruginosa [14] = assay: Antibiotic adjuvant activity against Pseudomonas aeruginosa ATCC 10145 assessed as potentiation of ciprofloxacin-induced antibiofilm activity by measuring reduction in biofilm cells culturability at 500 ug/ml measured after 24 hrs in presence of ciprofloxacin by visual counting method; type: functional, organism-based; details: dose 500.0 µg/ml
Pseudomonas aeruginosa [15] = assay: Antibacterial activity against Pseudomonas aeruginosa ATCC 10145 assessed as inhibition of bacterial growth incubated for 24 hrs by broth microdilution method; type: functional
Staphylococcus aureus [16] = assay: Inhibition of virulence production in Staphylococcus aureus CECT 976 biofilms assessed as diameter of protease halo at 1/2XMTC measured after 72 hrs (reference value: 11.8 to 13.3 mm); type: functional
[17] = Metal chelating activity at iron(III) in chrome azurol sulphonate solution incubated for 30 mins by spectrophotometric analysis; details: dose 6.25-1000 µg/ml
Staphylococcus aureus [18] = assay: Antibacterial activity against Staphylococcus aureus CECT 976 assessed as inhibition of bacterial growth by measuring inhibition zone diameter at 1000 ug/ml incubated for 24 hrs in presence of gentamicin by disc diffusion method (reference value: 12 +/- 1.63 mm); type: functional; details: read-out: DIZ
Staphylococcus aureus [19] = assay: Antibacterial activity against Staphylococcus aureus CECT 976 assessed as inhibition of bacterial growth by measuring inhibition zone diameter at 1000 ug/ml incubated for 24 hrs in presence of tobramycin by disc diffusion method (reference value: 12.5 +/- 1.29 mm); type: functional; details: read-out: DIZ
Staphylococcus aureus [20] = assay: Inhibition of virulence production in pre-established 24 hr-old Staphylococcus aureus CECT 976 biofilms assessed as diameter of siderophores halo at 10XMTC measured after 48 hrs in presence of 1/4XMIC tobramycin (reference value: 11.5 +/-0.6 mm); type: functional
Staphylococcus aureus [21] = assay: Antibacterial activity against Staphylococcus aureus CECT 976 assessed as inhibition of bacterial growth by measuring inhibition zone diameter at 1000 ug/ml incubated for 24 hrs in presence of ciprofloxacin by disc diffusion method (reference value: 29.25 +/- 0.96 mm); type: functional; details: read-out: DIZ
Staphylococcus aureus [22] = assay: Inhibition of virulence production in Staphylococcus aureus CECT 976 biofilms assessed as diameter of lipases halo at 1/2XMTC measured after 48 hrs in presence of 1/4XMIC tobramycin (reference value: 12.3 to 13.5 mm); type: functional
Staphylococcus aureus [23] = assay: Inhibition of virulence production in Staphylococcus aureus CECT 976 biofilms assessed as diameter of protease halo at 1/2XMTC measured after 72 hrs in presence of 1/2XMIC tobramycin (reference value: 12.5 to 13.3 mm); type: functional
Staphylococcus aureus [24] = assay: Inhibition of virulence production in Staphylococcus aureus CECT 976 biofilms assessed as diameter of siderophores halo at 1/2XMTC measured after 48 hrs in presence of 1/2XMIC tobramycin (reference value: 10.5 +/-0.6 mm); type: functional
Pseudomonas aeruginosa [25] = assay: Bactericidal activity against Pseudomonas aeruginosa ATCC 10145 assessed as bacterial killing incubated in MHB for 24 hrs and measured following culturing on agar plate for 24 hrs; type: functional; details: time 48 hrs
Pseudomonas aeruginosa [26] = assay: Antibiotic adjuvant activity against preestablished 24-hr old Pseudomonas aeruginosa ATCC 10145 assessed as potentiation of ciprofloxacin-induced antibiofilm activity by measuring reduction of biomass at 1000 ug/ml measured after 24 hrs in presence of 1/8XMIC ciprofloxacin by crystal violet staining method; type: functional, organism-based; details: dose 1000.0 µg/ml
Pseudomonas aeruginosa [27] = assay: Antibacterial activity against Pseudomonas aeruginosa ATCC 10145 assessed as inhibition of bacterial growth by measuring inhibition zone diameter at 100 ug/ml incubated for 24 hrs in presence of ciprofloxacin by disc diffusion method (reference value: 24.25 +/-0.5 mm); type: functional; details: read-out: DIZ
Staphylococcus aureus [28] = assay: Antibiofilm activity against preestablished 24 hr-old Staphylococcus aureus CECT 976 assessed as reduction in metabolic activity of biofilm cells at MTC by resazurin staining based fluorescence analysis; type: functional, organism-based

With `O=c1cc(CO)occ1O` [KOJIC ACID] the Activity (Staphylococcus aureus [1]) was 9.3 mm, the Activity (Staphylococcus aureus [2]) was “Active; Slight Increase Noted” and the MBC (Staphylococcus aureus [3]) was 1 mg/L. For the same compound, the “fractional inhibitory concentration index (FICI)” value (Pseudomonas aeruginosa [4]) was 0.5, the zone of inhibition at 100 µg/mL (Pseudomonas aeruginosa [5]) was 12 mm and the “fractional inhibitory concentration index (FICI)” value (Staphylococcus aureus [6]) was 0.3. It also gave an Activity (Staphylococcus aureus [7]) of 10 mm, an Activity (Staphylococcus aureus [8]) of 0 mm and a viability at 24 h [9] greater than 80%. It also gave an Activity (Staphylococcus aureus [10]) of 2.3 mm, an MBC (Staphylococcus aureus [11]) greater than 1000 mg/L and an Activity (Staphylococcus aureus [12]) of 0 mm. For the same compound, the “inhibition (INH)” value (Pseudomonas aeruginosa [13]) was 70%, the Activity (Pseudomonas aeruginosa [14]) was “inactive” and the MIC (Pseudomonas aeruginosa [15]) was greater than 1000 mg/L. The Activity (Staphylococcus aureus [16]) was 0 mm, the Activity [17] was “Dose-dependent-effect” and the zone of inhibition at 1000 µg/mL (Staphylococcus aureus [18]) was 9.5 mm. It also gave a zone of inhibition at 1000 µg/mL (Staphylococcus aureus [19]) of 13.2 mm, an Activity (Staphylococcus aureus [20]) of 10.3 mm and a zone of inhibition at 1000 µg/mL (Staphylococcus aureus [21]) of 30.8 mm. For the same compound, the Activity (Staphylococcus aureus [22]) was 2 mm, the Activity (Staphylococcus aureus [23]) was 0 mm and the Activity (Staphylococcus aureus [24]) was 9.75 mm. The MBC (Pseudomonas aeruginosa [25]) was greater than 1000 mg/L, the Activity (Pseudomonas aeruginosa [26]) was “inactive” and the zone of inhibition at 100 µg/mL (Pseudomonas aeruginosa [27]) was 30.2 mm. For the same compound, the Activity (Staphylococcus aureus [28]) was “inactive”.
In the case of `Cc1occc(=O)c1O` [MALTOL], the Activity (Staphylococcus aureus [1]) is reported as 10 mm, the Activity (Staphylococcus aureus [2]) is reported as “Active; Slight Increase Noted” and the MBC (Staphylococcus aureus [3]) is reported as 1 mg/L. For the same compound, the “fractional inhibitory concentration index (FICI)” value (Pseudomonas aeruginosa [4]) was 0.5, the zone of inhibition at 100 µg/mL (Pseudomonas aeruginosa [5]) was 11.8 mm and the “fractional inhibitory concentration index (FICI)” value (Staphylococcus aureus [6]) was 0.3. For the same compound, the Activity (Staphylococcus aureus [7]) was 10 mm, the Activity (Staphylococcus aureus [8]) was 0 mm and the viability at 24 h [9] was greater than 80%. For the same compound, the Activity (Staphylococcus aureus [10]) was 2 mm, the MBC (Staphylococcus aureus [11]) was greater than 1000 mg/L and the Activity (Staphylococcus aureus [12]) was 0 mm. The “inhibition (INH)” value (Pseudomonas aeruginosa [13]) was 70%, the Activity (Pseudomonas aeruginosa [14]) was “inactive” and the MIC (Pseudomonas aeruginosa [15]) was greater than 1000 mg/L. The Activity (Staphylococcus aureus [16]) was 0 mm, the Activity [17] was “Dose-dependent-effect” and the zone of inhibition at 1000 µg/mL (Staphylococcus aureus [18]) was 17.5 mm. For the same compound, the zone of inhibition at 1000 µg/mL (Staphylococcus aureus [19]) was 19 mm, the Activity (Staphylococcus aureus [20]) was 10.3 mm and the zone of inhibition at 1000 µg/mL (Staphylococcus aureus [21]) was 33 mm. It also gave an Activity (Staphylococcus aureus [22]) of 2.3 mm, an Activity (Staphylococcus aureus [23]) of 0 mm and an Activity (Staphylococcus aureus [24]) of 9.5 mm. The MBC (Pseudomonas aeruginosa [25]) was greater than 1000 mg/L, the Activity (Pseudomonas aeruginosa [26]) was “inactive” and the zone of inhibition at 100 µg/mL (Pseudomonas aeruginosa [27]) was 27.2 mm. The Activity (Staphylococcus aureus [28]) was “inactive”.
